Test results from patent US6613718B2, “Aryl ether derivatives and processes for their preparation and herbicidal and desiccant compositions containing them” (Ishihara Sangyo Kaisha, Ltd., priority 2001, dated 2003).

Key:
Assay type in all cases: in vivo
Conditions in all cases: 14 days after application
[1] = system: barnyardgrass (Echinochloa crus-galli, ECHCG); experiment: Post-emerge greenhouse herbicide activity screening, phytotoxicity rating
Description: (§1) A standard greenhouse herbicide activity screening system was used to evaluate the herbicidal efficacy and crop safety of these test compounds. Seven broadleaf weed species including redroot pigweed (Amaranthus retroflexus, AMARE), velvetleaf (Abutilon theophrasti, ABUTH), sicklepod (Cassia obtusifolia, CASOB), ivyleaf morningglory (Ipomoea hederacea, IPOHE), lambsquarters (Chenopodium album, CHEAL), common ragweed (Ambrosia artemisiifolia L., AMBEL), and cocklebur (Xanthium strumarium, XANST) were used as test species. Four grass weed species including green foxtail (Setaria viridis, SETVI), barnyardgrass (Echinochloa crus-galli, ECHCG), johnsongrass (Sorghum halepense, SORHA), and large crabgrass (Digitaria sanguinalis, DIGSA) were also used. In addition, three crop species, field corn (Zea mays L., var. Dekalb 535, CORN), soybean (Glycine max L., var. Pella 86, SOY), and upland rice (Oryza sp., var.Tebonnet, RICE) were included.
(§2) All plants were grown in 10 cm square plastic pots which were filled with a sandy loam soil mix. For pre-emerge tests, seeds were planted one day prior to application of the test compounds. For post-emerge tests, seeds were planted 8-21 days prior to the test to allow emergence and good foliage development prior to application of the test substances. At the time of the post-emerge application, plants of all species were usually at the 2-3 leaf stage of development.
(§3) All test compounds were dissolved in acetone and applied to the test units in a volume of 187 1/ha. Test materials were applied at rates ranging from 15 g ai/ha to 1000 g ai/ha using a track sprayer equipped with a TJ8001E even flow flat fan spray nozzle. Plants were arranged on a shelf so that the top of the canopy (post-emerge) or top of the soil surface (pre-emerge) was 40-45 cm below the nozzle. Pressurized air was used to force the test solution through the nozzle as it was mechanically advanced (via electrically driven chain drive) over the top of all test plants/pots. This application simulates a typical commercial field herbicide application.
(§4) In the post-emerge test, a commercial non-ionic surfactant was also included (0.25% v/v) to enhance wetting of the leaf surfaces of target plants. Immediately after application, test units of the pre-emerge applications were watered at the soil surface to incorporate the test materials. Subsequently, these test units were bottom-watered. Post-emerge test units were always bottom-watered.
(§5) At 14 days after application of the test materials, phytotoxicity ratings were recorded. A rating scale of 0-100 was used as previously described in Research Methods in Weed Science, 2nd edition, B. Truelove, Ed., Southern Weed Science Society, Auburn University, Auburn, Ala., 1977. Briefly, “0” corresponds to no damage and “100” corresponds to complete death of all plants in the test unit. This scale was used both to determine efficacy against weed species and damage to crop species. Herbicide activity data for various compounds of this invention, which are shown by compound No. in Tables I-VI, are shown in Tables VIII-IX.

[2] = system: ivyleaf morningglory (Ipomoea hederacea, IPOHE); experiment: as above
Description: as §1, §2, §3, §4, §5

[3] = system: redroot pigweed (Amaranthus retroflexus, AMARE); experiment: as above
Description: as §1, §2, §3, §4, §5

[4] = system: sicklepod (Cassia obtusifolia, CASOB); experiment: as above
Description: as §1, §2, §3, §4, §5

[5] = system: johnsongrass (Sorghum halepense, SORHA); experiment: as above
Description: as §1, §2, §3, §4, §5

[6] = system: common ragweed (Ambrosia artemisiifolia L., AMBEL); experiment: as above
Description: as §1, §2, §3, §4, §5

[7] = system: velvetleaf (Abutilon theophrasti, ABUTH); experiment: as above
Description: as §1, §2, §3, §4, §5

[8] = system: lambsquarters (Chenopodium album, CHEAL); experiment: as above
Description: as §1, §2, §3, §4, §5

[9] = system: large crabgrass (Digitaria sanguinalis, DIGSA); experiment: as above
Description: as §1, §2, §3, §4, §5

[10] = system: green foxtail (Setaria viridis, SETVI); experiment: as above
Description: as §1, §2, §3, §4, §5

[11] = system: soybean (Glycine max L., var. Pella 86, SOY); experiment: Pre-emerge greenhouse screening, crop safety (phytotoxicity rating)
Description: as §1, §2, §3, §4, §5

[12] = system: upland rice (Oryza sp., var.Tebonnet, RICE); experiment: as above
Description: as §1, §2, §3, §4, §5

[13] = system: field corn (Zea mays L., var. Dekalb 535, CORN); experiment: as above
Description: as §1, §2, §3, §4, §5

[14] = system: soybean (Glycine max L., var. Pella 86, SOY); experiment: Post-emerge greenhouse screening, crop safety (phytotoxicity rating)
Description: as §1, §2, §3, §4, §5

[15] = system: upland rice (Oryza sp., var.Tebonnet, RICE); experiment: as above
Description: as §1, §2, §3, §4, §5

[16] = system: barnyardgrass (Echinochloa crus-galli, ECHCG); experiment: Pre-emerge greenhouse herbicide activity screening, phytotoxicity rating
Description: as §1, §2, §3, §4, §5

[17] = system: ivyleaf morningglory (Ipomoea hederacea, IPOHE); experiment: as above
Description: as §1, §2, §3, §4, §5

[18] = system: redroot pigweed (Amaranthus retroflexus, AMARE); experiment: as above
Description: as §1, §2, §3, §4, §5

[19] = system: sicklepod (Cassia obtusifolia, CASOB); experiment: as above
Description: as §1, §2, §3, §4, §5

[20] = system: johnsongrass (Sorghum halepense, SORHA); experiment: as above
Description: as §1, §2, §3, §4, §5

[21] = system: common ragweed (Ambrosia artemisiifolia L., AMBEL); experiment: as above
Description: as §1, §2, §3, §4, §5

[22] = system: velvetleaf (Abutilon theophrasti, ABUTH); experiment: as above
Description: as §1, §2, §3, §4, §5

[23] = system: lambsquarters (Chenopodium album, CHEAL); experiment: as above
Description: as §1, §2, §3, §4, §5

[24] = system: large crabgrass (Digitaria sanguinalis, DIGSA); experiment: as above
Description: as §1, §2, §3, §4, §5

[25] = system: green foxtail (Setaria viridis, SETVI); experiment: as above
Description: as §1, §2, §3, §4, §5

[26] = system: field corn (Zea mays L., var. Dekalb 535, CORN); experiment: Post-emerge greenhouse screening, crop safety / corn selectivity (phytotoxicity rating)
Description: as §1, §2, §3, §4, §5

How did the “ECHCG phytotoxicity rating (0-100 scale)” value ([1]; 125 g ai/ha) turn out when Cn1c(C(F)(F)F)cc(=O)n(-c2cc(Oc3ncccc3C(F)(F)F)c(Cl)cc2F)c1=S [Compound 1-15] was run?
Its value is 0.

And the “ECHCG phytotoxicity rating (0-100 scale)” value ([1]; 250 g ai/ha)?
Its value is 0.

What about the “IPOHE phytotoxicity rating (0-100 scale)” value ([2]; 125 g ai/ha) of the same compound?
Its value is 75.

What about the “IPOHE phytotoxicity rating (0-100 scale)” value ([2]; 250 g ai/ha) of the same compound?
The value was 100.

What about the “AMARE phytotoxicity rating (0-100 scale)” value ([3]; 125 g ai/ha) of the same compound?
The value was 90.

And the “AMARE phytotoxicity rating (0-100 scale)” value ([3]; 250 g ai/ha)?
The value was 90.

And the “CASOB phytotoxicity rating (0-100 scale)” value ([4]; 125 g ai/ha)?
Its value is 60.

What about the “CASOB phytotoxicity rating (0-100 scale)” value ([4]; 250 g ai/ha) of the same compound?
The value was 65.

What about the “SORHA phytotoxicity rating (0-100 scale)” value ([5]; 125 g ai/ha) of the same compound?
The value was 0.

And the “SORHA phytotoxicity rating (0-100 scale)” value ([5]; 250 g ai/ha)?
The value was 0.

What about the “AMBEL phytotoxicity rating (0-100 scale)” value ([6]; 125 g ai/ha) of the same compound?
The value was 55.

And the “AMBEL phytotoxicity rating (0-100 scale)” value ([6]; 250 g ai/ha)?
Its value is 55.

What about the “ABUTH phytotoxicity rating (0-100 scale)” value ([7]; 125 g ai/ha) of the same compound?
The value was 95.

What about the “ABUTH phytotoxicity rating (0-100 scale)” value ([7]; 250 g ai/ha) of the same compound?
Its value is 95.

And the “CHEAL phytotoxicity rating (0-100 scale)” value ([8]; 125 g ai/ha)?
Its value is 100.

And the “CHEAL phytotoxicity rating (0-100 scale)” value ([8]; 250 g ai/ha)?
Its value is 100.

What about the “DIGSA phytotoxicity rating (0-100 scale)” value ([9]; 125 g ai/ha) of the same compound?
Its value is 0.

And the “DIGSA phytotoxicity rating (0-100 scale)” value ([9]; 250 g ai/ha)?
The value was 0.

What about the “SETVI phytotoxicity rating (0-100 scale)” value ([10]; 125 g ai/ha) of the same compound?
The value was 0.

And the “SETVI phytotoxicity rating (0-100 scale)” value ([10]; 250 g ai/ha)?
The value was 0.

What about the “SOY crop damage, phytotoxicity rating (0-100 scale)” value (“SOY crop damage” for short) ([11]; 125 g ai/ha) of the same compound?
The value was 0.

And the “SOY crop damage” value ([11]; 250 g ai/ha)?
Its value is 35.

And the “RICE crop damage, phytotoxicity rating (0-100 scale)” value (shortened to “RICE crop damage”) ([12]; 125 g ai/ha)?
Its value is 0.

What about the “RICE crop damage” value ([12]; 250 g ai/ha) of the same compound?
Its value is 0.

And the “CORN crop damage, phytotoxicity rating (0-100 scale)” value (“CORN crop damage” for short) ([13]; 125 g ai/ha)?
Its value is 8.

What about the “CORN crop damage” value ([13]; 250 g ai/ha) of the same compound?
Its value is 8.

And the “SOY crop damage” value ([14]; 125 g ai/ha)?
Its value is 10.

What about the “SOY crop damage” value ([14]; 250 g ai/ha) of the same compound?
The value was 10.

And the “RICE crop damage” value ([15]; 125 g ai/ha)?
Its value is 0.

What about the “RICE crop damage” value ([15]; 250 g ai/ha) of the same compound?
Its value is 0.

What about the “ECHCG phytotoxicity rating (0-100 scale)” value ([16]; 125 g ai/ha) of the same compound?
Its value is 50.

What about the “ECHCG phytotoxicity rating (0-100 scale)” value ([16]; 250 g ai/ha) of the same compound?
The value was 65.

And the “IPOHE phytotoxicity rating (0-100 scale)” value ([17]; 125 g ai/ha)?
Its value is 95.

And the “IPOHE phytotoxicity rating (0-100 scale)” value ([17]; 250 g ai/ha)?
The value was 100.

And the “AMARE phytotoxicity rating (0-100 scale)” value ([18]; 125 g ai/ha)?
The value was 100.

What about the “AMARE phytotoxicity rating (0-100 scale)” value ([18]; 250 g ai/ha) of the same compound?
The value was 100.

And the “CASOB phytotoxicity rating (0-100 scale)” value ([19]; 125 g ai/ha)?
Its value is 55.

And the “CASOB phytotoxicity rating (0-100 scale)” value ([19]; 250 g ai/ha)?
Its value is 85.

What about the “SORHA phytotoxicity rating (0-100 scale)” value ([20]; 125 g ai/ha) of the same compound?
The value was 60.

And the “SORHA phytotoxicity rating (0-100 scale)” value ([20]; 250 g ai/ha)?
Its value is 98.

What about the “AMBEL phytotoxicity rating (0-100 scale)” value ([21]; 125 g ai/ha) of the same compound?
Its value is 75.

What about the “AMBEL phytotoxicity rating (0-100 scale)” value ([21]; 250 g ai/ha) of the same compound?
Its value is 90.

And the “ABUTH phytotoxicity rating (0-100 scale)” value ([22]; 125 g ai/ha)?
The value was 100.

What about the “ABUTH phytotoxicity rating (0-100 scale)” value ([22]; 250 g ai/ha) of the same compound?
The value was 100.

And the “CHEAL phytotoxicity rating (0-100 scale)” value ([23]; 125 g ai/ha)?
Its value is 100.

What about the “CHEAL phytotoxicity rating (0-100 scale)” value ([23]; 250 g ai/ha) of the same compound?
Its value is 100.

What about the “DIGSA phytotoxicity rating (0-100 scale)” value ([24]; 125 g ai/ha) of the same compound?
The value was 99.

And the “DIGSA phytotoxicity rating (0-100 scale)” value ([24]; 250 g ai/ha)?
The value was 100.

What about the “SETVI phytotoxicity rating (0-100 scale)” value ([25]; 125 g ai/ha) of the same compound?
The value was 100.

And the “SETVI phytotoxicity rating (0-100 scale)” value ([25]; 250 g ai/ha)?
The value was 100.

And the “CORN crop damage” value ([26]; 125 g ai/ha)?
The value was 5.

And the “CORN crop damage” value ([26]; 250 g ai/ha)?
Its value is 5.
